Test results published in patent US10660876B2, “Amino compounds for treatment of medical disorders” (Achillion Pharmaceuticals, Inc., priority 2015, dated 2020).

Each molecule was assayed against Human Factor D (Homo sapiens (Human), UniProt P00746) (assay: Human Factor D Assay). Conditions: Table 1; Factor D purified from human serum, 80 nM, substrate Z-L-Lys-SBzl; read-out: IC50.
Format: biochemical
Experimental: Example 12. Human Factor D Assay
Human Factor D (purified from human serum, Complement Technology, Inc.) at 80 nM final concentration is incubated with test compound at various concentrations for 5 minutes at room temperature in 50 mM Tris, 1M NaCl, pH 7.5. A synthetic substrate Z-L-Lys-SBzl and DTNB (Ellman's reagent) are added to final concentrations of 100 μM each. Absorbance at 405 nm (A405) is recorded at 30 second intervals for 30 minutes using a microplate spectrophotometer. IC50 values are calculated by nonlinear regression of complement Factor D reaction rates as a function of test compound concentration.

Chain of Human Factor D (P00746 26-253): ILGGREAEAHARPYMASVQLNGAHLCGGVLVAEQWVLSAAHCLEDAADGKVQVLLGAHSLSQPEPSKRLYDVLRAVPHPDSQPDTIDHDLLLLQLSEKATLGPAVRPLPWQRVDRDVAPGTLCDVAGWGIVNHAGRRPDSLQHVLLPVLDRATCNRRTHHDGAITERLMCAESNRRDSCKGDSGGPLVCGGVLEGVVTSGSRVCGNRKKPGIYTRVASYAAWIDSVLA

With CC(=O)c1cn(CC(=O)N2C[C@H](F)C[C@H]2C(=O)Nc2noc3cc(C(F)(F)F)ccc23)c2ccc(Nc3cncnc3)cc12 [Compound 52, (2S,4R)-1-(2-(3-acetyl-5-(pyrimidin-5-ylamino)-1H-indol-1-yl)acetyl)-4-fluoro-N-(6-(trifluoromethyl)benzo[d]isoxazol-3-yl)pyrrolidine-2-carboxamide] as the molecule, how does the IC50 read?
Its IC50 is 1000 to 10000 nM.

For CC(=O)c1cn(CC(=O)N2C[C@H](F)C[C@H]2C(=O)NC2CCCN(c3cnn(C)c3)C2)c2ccc(Nc3cncnc3)cc12 (stereo partly drawn) [Compound 42, (2S,4R)-1-(2-(3-acetyl-5-(pyrimidin-5-ylamino)-1H-indol-1-yl)acetyl)-4-fluoro-N-(1-(1-methyl-1H-pyrazol-4-yl)piperidin-3-yl)pyrrolidine-2-carboxamide], which IC50 is on record?
The IC50 was under 1000 nM.

How did the IC50 turn out when CC(=O)c1cn(CC(=O)N2C[C@H](F)C[C@H]2C(=O)Nc2ccc(OCc3ccccc3)cn2)c2ccc(Nc3cncnc3)cc12 [Compound 45, (2S,4R)-1-(2-(3-acetyl-5-(pyrimidin-5-ylamino)-1H-indol-1-yl)acetyl)-N-(5-(benzyloxy)pyridin-2-yl)-4-fluoropyrrolidine-2-carboxamide] was run?
Its IC50 is under 1000 nM.

Which IC50 does the source give for CC(=O)c1cn(CC(=O)N2C[C@H](F)C[C@H]2C(=O)Nc2cncc(Br)c2)c2ccc(Nc3cncnc3)cc12 [Compound 21, (2S,4R)-1-(2-(3-acetyl-5-(pyrimidin-5-ylamino)-1H-indol-1-yl)acetyl)-N-(5-bromopyridin-3-yl)-4-fluoropyrrolidine-2-carboxamide] here?
The IC50 was under 1000 nM.

With CC(=O)c1cn(CC(=O)N2C[C@H](F)C[C@H]2C(=O)NCc2cccnc2)c2ccc(Nc3cncnc3)cc12 [Compound 43, (2S,4R)-1-(2-(3-acetyl-5-(pyrimidin-5-ylamino)-1H-indol-1-yl)acetyl)-4-fluoro-N-(pyridin-3-ylmethyl) pyrrolidine-2-carboxamide] as the molecule, how does the IC50 read?
Its IC50 is under 1000 nM.

CC(=O)c1cn(CC(=O)N2C[C@H](F)C[C@H]2C(=O)NCc2cccc(Cl)c2)c2ccc(Nc3cncnc3)cc12 [Compound 19, (2S,4R)-1-(2-(3-acetyl-5-(pyrimidin-5-ylamino)-1H-indol-1-yl)acetyl)-N-(3-chlorobenzyl)-4-fluoropyrrolidine-2-carboxamide] was tested. Which IC50 did it give?
Its IC50 is under 1000 nM.

Which IC50 does the source give for CC(=O)c1cn(CC(=O)N2C[C@H](F)C[C@H]2C(=O)Nc2ccc(F)c(-c3nnc4n3CCCCC4)c2)c2ccc(Nc3cncnc3)cc12 [Compound 26, (2S,4R)-1-(2-(3-acetyl-5-(pyrimidin-5-ylamino)-1H-indol-1-yl)acetyl)-4-fluoro-N-(4-fluoro-3-(6,7,8,9-tetrahydro-5H-[1,2,4]triazolo[4,3-a]azepin-3-yl)phenyl) pyrrolidine-2-carboxamide] here?
The IC50 was under 1000 nM.

With CC(=O)c1cn(CC(=O)N2C[C@H](F)C[C@H]2C(=O)Nc2cccc(O)n2)c2ccc(Nc3cncnc3)cc12 [Compound 68, (2S,4R)-1-(2-(3-acetyl-5-(pyrimidin-5-ylamino)-1H-indol-1-yl)acetyl)-4-fluoro-N-(6-hydroxypyridin-2-yl)pyrrolidine-2-carboxamide] as the molecule, how does the IC50 read?
Its IC50 is under 1000 nM.

How did the IC50 turn out when NC(=O)c1nn(CC(=O)N2C[C@H](F)C[C@H]2C(=O)Nc2cccc(-c3ccccc3Cl)c2F)c2ccc(Nc3cnc(C(F)(F)F)nc3)cc12 [Compound 14, 1-(2-((2S,4R)-2-(2′-chloro-2-fluorobiphenyl-3-ylcarbamoyl)-4-fluoropyrrolidin-1-yl)-2-oxoethyl)-5-(2-(trifluoromethyl)pyrimidin-5-ylamino)-1H-indazole-3-carboxamide] was run?
The IC50 was under 1000 nM.

CC(=O)c1cn(CC(=O)N2C[C@H](F)C[C@H]2C(=O)Nc2ccccc2-c2nncn2C)c2ccc(Nc3cncnc3)cc12 [Compound 61, (2S,4R)-1-(2-(3-acetyl-5-(pyrimidin-5-ylamino)-1H-indol-1-yl)acetyl)-4-fluoro-N-(2-(4-methyl-4H-1,2,4-triazol-3-yl)phenyl) pyrrolidine-2-carboxamide] was tested. Which IC50 did it give?
Its IC50 is over 10000 nM.

CC(=O)c1cn(CC(=O)N2C[C@H](F)C[C@H]2C(=O)NC2CCCN(c3cc(C)ccc3F)C2=O)c2ccc(Nc3cncnc3)cc12 (stereo partly drawn) [Compound 63, (2S,4R)-1-(2-(3-acetyl-5-(pyrimidin-5-ylamino)-1H-indol-1-yl)acetyl)-4-fluoro-N-(1-(2-fluoro-5-methylphenyl)-2-oxopiperidin-3-yl)pyrrolidine-2-carboxamide] was tested. Which IC50 did it give?
Its IC50 is under 1000 nM.

How did the IC50 turn out when CC(=O)c1cn(CC(=O)N2C[C@H](F)C[C@H]2C(=O)Nc2ccc(O)cn2)c2ccc(Nc3cncnc3)cc12 [Compound 70, (2S,4R)-1-(2-(3-acetyl-5-(pyrimidin-5-ylamino)-1H-indol-1-yl)acetyl)-4-fluoro-N-(5-hydroxypyridin-2-yl)pyrrolidine-2-carboxamide] was run?
Its IC50 is 1000 to 10000 nM.

How did the IC50 turn out when CC(=O)c1cn(CC(=O)N2C[C@H](F)C[C@H]2C(=O)Nc2cccc3c2NC(=O)C(C)O3)c2ccc(Nc3cncnc3)cc12 (stereo partly drawn) [Compound 71, (2S,4R)-1-(2-(3-acetyl-5-(pyrimidin-5-ylamino)-1H-indol-1-yl)acetyl)-4-fluoro-N-(2-methyl-3-oxo-3,4-dihydro-2H-benzo[b][1,4]oxazin-5-yl)pyrrolidine-2-carboxamide] was run?
The IC50 was 1000 to 10000 nM.

With CC(=O)c1cn(CC(=O)N2C[C@H](F)C[C@H]2C(=O)Nc2cc(C)nc3nc(C(F)(F)F)nn23)c2ccc(Nc3cncnc3)cc12 [Compound 41, (2S,4R)-1-(2-(3-acetyl-5-(pyrimidin-5-ylamino)-1H-indol-1-yl)acetyl)-4-fluoro-N-(5-methyl-2-(trifluoromethyl)-[1,2,4]triazolo[1,5-a]pyrimidin-7-yl)pyrrolidine-2-carboxamide] as the molecule, how does the IC50 read?
The IC50 was over 10000 nM.

Same assay, conditions: Table 3; Factor D purified from human serum, 80 nM, substrate Z-L-Lys-SBzl; read-out: IC50 (Stars)

For CC(=O)c1cn(CC(=O)N2CC[C@H]2C(=O)Nc2cccc(C)n2)c2ccc(Nc3cccnc3)cc12 [Compound 159, (S)-1-(2-(3-acetyl-5-(pyridin-3-ylamino)-1H-indol-1-yl)acetyl)-N-(6-methylpyridin-2-yl)azetidine-2-carboxamide], which IC50 is on record?
The IC50 was over 10000 nM.

Which IC50 does the source give for CC(=O)c1nn(CC(=O)N2C[C@H](F)C[C@H]2C(=O)Nc2cccc(Br)n2)c2ccc(Nc3cnc(C)nc3)cc12 [Compound 163, (2S,4R)-1-(2-(3-acetyl-5-((2-methylpyrimidin-5-yl)amino)-1H-indazol-1-yl)acetyl)-N-(6-bromopyridin-2-yl)-4-fluoropyrrolidine-2-carboxamide] here?
The IC50 was under 1000 nM.

With CC(=O)c1nn(CC(=O)N2C[C@H](F)C[C@H]2C(=O)Nc2cccc(Br)n2)c2ccc(Nc3cncc(F)c3)cc12 [Compound 164, (2S,4R)-1-(2-(3-acetyl-5-((5-yl)amino)-1H-indazol-1-yl)acetyl)-N-(6-bromopyridin-2-yl)-4-fluoropyrrolidine-2-carboxamide] as the molecule, how does the IC50 read?
The IC50 was under 1000 nM.

For CC(=O)c1cn(CC(=O)N2C[C@H](F)C[C@H]2C(=O)NCc2ccccc2)c2ccc(Nc3cccnc3)cc12 [Compound 146, (2S,4R)-1-(2-(3-acetyl-5-(pyridin-3-ylamino)-1H-indol-1-yl)acetyl)-N-benzyl-4-fluoropyrrolidine-2-carboxamide], which IC50 is on record?
The IC50 was under 1000 nM.

For CC(=O)c1cn(CC(=O)N2C[C@H](F)C[C@H]2C(=O)NCCCCc2ccccc2)c2ccc(Nc3cncnc3)cc12 [Compound 156, (2S,4R)-1-(2-(3-acetyl-5-(pyrimidin-5-ylamino)-1H-indol-1-yl)acetyl)-4-fluoro-N-(4-phenylbutyl) pyrrolidine-2-carboxamide], which IC50 is on record?
The IC50 was under 1000 nM.
